Assay results published in ChEMBL document CHEMBL3044662, “Synthesis and potential antibacterial activity of new rhodanine-3-acetic acid derivatives” (2013).
In brackets after ≈: the same amount, converted by molar mass.

Columns and labels:
Format in all cases: functional
[1] = system: Staphylococcus aureus; test: Antibacterial activity against Staphylococcus aureus subsp. aureus RN4220 assessed as growth inhibition after 20 hr by two-fold serial dilution method; settings: RN4220, 20 h
[2] = system: Staphylococcus aureus; test: Antibacterial activity against methicillin-resistant Staphylococcus aureus CCARM 3506 clinical isolate assessed as growth inhibition after 20 hr by two-fold serial dilution method; settings: CCARM 3506, 20 h
[3] = system: Staphylococcus aureus; test: Antibacterial activity against quinolene-resistant Staphylococcus aureus CCARM 3519 clinical isolate assessed as growth inhibition after 20 hr by two-fold serial dilution method; settings: CCARM 3519, 20 h
[4] = system: Escherichia coli; test: Antibacterial activity against Escherichia coli CCARM 1924 assessed as growth inhibition after 20 hr by two-fold serial dilution method; settings: CCARM 1924, 20 h
[5] = system: Escherichia coli; test: Antibacterial activity against Escherichia coli CCARM 1356 assessed as growth inhibition after 20 hr by two-fold serial dilution method; settings: CCARM 1356, 20 h
[6] = system: Staphylococcus aureus; test: Antibacterial activity against methicillin-resistant Staphylococcus aureus CCARM 3167 clinical isolate assessed as growth inhibition after 20 hr by two-fold serial dilution method; settings: CCARM 3167, 20 h
[7] = system: Staphylococcus aureus; test: Antibacterial activity against Staphylococcus aureus KCTC 503 assessed as growth inhibition after 20 hr by two-fold serial dilution method; settings: KCTC 503, 20 h
[8] = system: Staphylococcus aureus; test: Antibacterial activity against quinolene-resistant Staphylococcus aureus CCARM 3505 clinical isolate assessed as growth inhibition after 20 hr by two-fold serial dilution method; settings: CCARM 3505, 20 h

Row | SMILES | MIC [1] | MIC [4] | MIC [5] | MIC [7] | MIC [2] | MIC [3] | MIC [6] | MIC [8]
1 | O=C(O)CN1C(=O)/C(=C/c2ccc3cc(OCc4ccc(Cl)cc4)ccc3c2)SC1=S | 2 mg/L (≈ 4.26 µM) | > 64 mg/L | > 64 mg/L | 4 mg/L (≈ 8.51 µM) | 2 mg/L (≈ 4.26 µM) | 4 mg/L (≈ 8.51 µM) | 2 mg/L (≈ 4.26 µM) | 4 mg/L (≈ 8.51 µM)
2 | O=C(O)CN1C(=O)/C(=C/c2ccc3cc(OCc4ccc(C(F)(F)F)cc4)ccc3c2)SC1=S | 4 mg/L (≈ 7.94 µM) | > 64 mg/L | > 64 mg/L | 4 mg/L (≈ 7.94 µM) | 2 mg/L (≈ 3.97 µM) | 64 mg/L (≈ 127 µM) | 2 mg/L (≈ 3.97 µM) | 64 mg/L (≈ 127 µM)
3 | O=C(O)CN1C(=O)/C(=C/c2ccc3cc(OCc4ccc([N+](=O)[O-])cc4)ccc3c2)SC1=S | 64 mg/L (≈ 133 µM) | > 64 mg/L | > 64 mg/L | 32 mg/L (≈ 66.6 µM) | 8 mg/L (≈ 16.6 µM) | 4 mg/L (≈ 8.32 µM) | 4 mg/L (≈ 8.32 µM) | 8 mg/L (≈ 16.6 µM)
4 | CN(C)c1ccc(COc2ccc3cc(/C=C4\SC(=S)N(CC(=O)O)C4=O)ccc3c2)cc1 | 64 mg/L (≈ 134 µM) | > 64 mg/L | > 64 mg/L | 64 mg/L (≈ 134 µM) | > 64 mg/L | > 64 mg/L | > 64 mg/L | > 64 mg/L
5 | O=C(O)CN1C(=O)/C(=C/c2ccc3cc(O)ccc3c2)SC1=S | > 64 mg/L | > 64 mg/L | > 64 mg/L | > 64 mg/L | – | – | – | –
6 | O=C(O)CN1C(=O)/C(=C/c2ccc3cc(OCc4ccccc4)ccc3c2)SC1=S | 64 mg/L (≈ 147 µM) | > 64 mg/L | > 64 mg/L | 64 mg/L (≈ 147 µM) | 64 mg/L (≈ 147 µM) | 64 mg/L (≈ 147 µM) | 64 mg/L (≈ 147 µM) | 64 mg/L (≈ 147 µM)
7 | Cc1ccc(COc2ccc3cc(/C=C4\SC(=S)N(CC(=O)O)C4=O)ccc3c2)cc1 | 2 mg/L (≈ 4.45 µM) | > 64 mg/L | > 64 mg/L | 4 mg/L (≈ 8.9 µM) | 4 mg/L (≈ 8.9 µM) | 8 mg/L (≈ 17.8 µM) | 2 mg/L (≈ 4.45 µM) | 4 mg/L (≈ 8.9 µM)
8 | COc1ccc(COc2ccc3cc(/C=C4\SC(=S)N(CC(=O)O)C4=O)ccc3c2)cc1 | 4 mg/L (≈ 8.59 µM) | > 64 mg/L | > 64 mg/L | 8 mg/L (≈ 17.2 µM) | 2 mg/L (≈ 4.3 µM) | 8 mg/L (≈ 17.2 µM) | 2 mg/L (≈ 4.3 µM) | –
9 | COc1ccc(COc2ccc3cc(/C=C4\SC(=S)N(CC(=O)O)C4=O)ccc3c2)cc1OC | 4 mg/L (≈ 8.07 µM) | > 64 mg/L | > 64 mg/L | 8 mg/L (≈ 16.1 µM) | 8 mg/L (≈ 16.1 µM) | 8 mg/L (≈ 16.1 µM) | 8 mg/L (≈ 16.1 µM) | 8 mg/L (≈ 16.1 µM)
10 | O=C(O)CN1C(=O)/C(=C/c2ccc3cc(OCc4ccc(F)cc4)ccc3c2)SC1=S | 4 mg/L (≈ 8.82 µM) | > 64 mg/L | > 64 mg/L | 4 mg/L (≈ 8.82 µM) | 2 mg/L (≈ 4.41 µM) | 4 mg/L (≈ 8.82 µM) | 4 mg/L (≈ 8.82 µM) | 4 mg/L (≈ 8.82 µM)
11 | O=C(O)CN1C(=O)/C(=C/c2ccc3cc(OCc4cccc(Br)c4)ccc3c2)SC1=S | 32 mg/L (≈ 62.2 µM) | > 64 mg/L | > 64 mg/L | 64 mg/L (≈ 124 µM) | 64 mg/L (≈ 124 µM) | > 64 mg/L | 64 mg/L (≈ 124 µM) | > 64 mg/L
12 | O=C(O)CN1C(=O)/C(=C/c2ccc3cc(OCc4ccc(Br)cc4)ccc3c2)SC1=S | 2 mg/L (≈ 3.89 µM) | > 64 mg/L | > 64 mg/L | 2 mg/L (≈ 3.89 µM) | 1 mg/L (≈ 1.94 µM) | 4 mg/L (≈ 7.78 µM) | 1 mg/L (≈ 1.94 µM) | 4 mg/L (≈ 7.78 µM)
13 | CCn1cc(C(=O)O)c(=O)c2cc(F)c(N3CCNCC3)cc21 [NORFLOXACIN] | 2 mg/L (≈ 6.26 µM) | 16 mg/L (≈ 50.1 µM) | 16 mg/L (≈ 50.1 µM) | 2 mg/L (≈ 6.26 µM) | 4 mg/L (≈ 12.5 µM) | > 64 mg/L | 8 mg/L (≈ 25.1 µM) | > 64 mg/L
14 | Cc1onc(-c2ccccc2)c1C(=O)N[C@@H]1C(=O)N2[C@@H]1SC(C)(C)[C@@H]2C(=O)O [OXACILLIN] | 1 mg/L (≈ 2.49 µM) | > 64 mg/L | > 64 mg/L | 1 mg/L (≈ 2.49 µM) | > 64 mg/L | 1 mg/L (≈ 2.49 µM) | > 64 mg/L | 1 mg/L (≈ 2.49 µM)
15 | O=C(O)CN1C(=O)CSC1=S [RHODANINE-3-ACETIC ACID] | > 64 mg/L | > 64 mg/L | > 64 mg/L | > 64 mg/L | – | – | – | –

More lines, main results first:

Row | MIC [1] | MIC [4] | MIC [5] | MIC [7] | SMILES | MIC [2] | MIC [3] | MIC [6] | MIC [8]
16 | > 64 mg/L | > 64 mg/L | > 64 mg/L | > 64 mg/L | N#Cc1ccccc1COc1ccc2cc(/C=C3\SC(=S)N(CC(=O)O)C3=O)ccc2c1 | – | – | – | –
17 | > 64 mg/L | > 64 mg/L | > 64 mg/L | > 64 mg/L | N#Cc1ccc(COc2ccc3cc(/C=C4\SC(=S)N(CC(=O)O)C4=O)ccc3c2)cc1 | – | – | – | –
18 | > 64 mg/L | > 64 mg/L | > 64 mg/L | > 64 mg/L | O=C(O)CN1C(=O)/C(=C/c2ccc3cc(OCc4ccc(Cl)cc4Cl)ccc3c2)SC1=S | – | – | – | –
19 | > 64 mg/L | > 64 mg/L | > 64 mg/L | > 64 mg/L | O=C(O)CN1C(=O)/C(=C/c2ccc3cc(OCc4ccc(Cl)c(Cl)c4)ccc3c2)SC1=S | – | – | – | –
20 | > 64 mg/L | > 64 mg/L | > 64 mg/L | > 64 mg/L | O=C(O)CN1C(=O)/C(=C/c2ccc3cc(OCc4c(Cl)cccc4Cl)ccc3c2)SC1=S | – | – | – | –
21 | > 64 mg/L | > 64 mg/L | > 64 mg/L | > 64 mg/L | O=C(O)CN1C(=O)/C(=C/c2ccc3cc(OCc4cccc(C(F)(F)F)c4)ccc3c2)SC1=S | – | – | – | –
22 | > 64 mg/L | > 64 mg/L | > 64 mg/L | > 64 mg/L | O=C(O)CN1C(=O)/C(=C/c2ccc3cc(OCc4ccc(I)cc4)ccc3c2)SC1=S | – | – | – | –
23 | > 64 mg/L | > 64 mg/L | > 64 mg/L | > 64 mg/L | Cc1ccc(COc2ccc3cc(/C=C4\SC(=S)N(CC(=O)O)C4=O)ccc3c2)cc1C | – | – | – | –
24 | > 64 mg/L | > 64 mg/L | > 64 mg/L | > 64 mg/L | COc1cccc(COc2ccc3cc(/C=C4\SC(=S)N(CC(=O)O)C4=O)ccc3c2)c1 | – | – | – | –
25 | > 64 mg/L | > 64 mg/L | > 64 mg/L | > 64 mg/L | O=C(O)CN1C(=O)/C(=C/c2ccc3cc(OCc4cccc(F)c4)ccc3c2)SC1=S | – | – | – | –
26 | > 64 mg/L | > 64 mg/L | > 64 mg/L | > 64 mg/L | O=C(O)CN1C(=O)/C(=C/c2ccc3cc(OCc4ccccc4Br)ccc3c2)SC1=S | – | – | – | –
27 | > 64 mg/L | > 64 mg/L | > 64 mg/L | > 64 mg/L | O=C(O)CN1C(=O)/C(=C/c2ccc3cc(OCc4ccccc4Cl)ccc3c2)SC1=S | – | – | – | –
28 | > 64 mg/L | > 64 mg/L | > 64 mg/L | > 64 mg/L | O=C(O)CN1C(=O)/C(=C/c2ccc3cc(OCc4cccc(Cl)c4)ccc3c2)SC1=S | – | – | – | –
